Consider one compound from ChEMBL document CHEMBL5252552, “Defined concatenated α6α1β3γ2 GABAA receptor constructs reveal dual action of pyrazoloquinolinone allosteric modulators” (Bioorg Med Chem, 2019).

The term EC50 denotes the concentration at which the effect is half-maximal.

The target in test [1] is T1, Gamma-aminobutyric acid receptor subunit alpha-1/beta-3/gamma-2 (Rattus norvegicus) (UniProt P18508+P62813+P63079). Kind of test: Positive allosteric modulation of rat recombinant GABAA alpha1beta3alpha1-gamma2beta3 receptor expressed in Xenopus laevis oocytes assessed as maximal efficacy at -80 mV holding potential at 3 uM in presence of GABA EC1 to 1.5 by two-electrode voltage-clamp assay. Type of test: cell-based. The following applies: Oocyte, filed as positive allosteric modulator. Background: Two-electrode voltage clamp holds a large cell at a set potential and records current.

Test [2] addresses Gamma-aminobutyric acid receptor subunit alpha-6/beta-3/gamma-2 (Rattus norvegicus, UniProt P18508+P30191+P63079). Kind of test: Positive allosteric modulation of rat recombinant GABAA alpha6beta3gamma2 receptor expressed in Xenopus laevis oocytes assessed as increase in GABA-induced current amplitude at -80 mV holding potential under more potent phase in presence of GABA EC1 to 1.5 by two-electrode voltage-clamp assay. Type of test: cell-based, Oocyte.

Test [3] has as its target Gamma-aminobutyric acid receptor subunit alpha-1/beta-3/gamma-2 (Rattus norvegicus, UniProt P18508+P62813+P63079). Kind of test: Positive allosteric modulation of rat recombinant GABAA alpha1beta3gamma2 receptor expressed in Xenopus laevis oocytes assessed as increase in GABA-induced current amplitude at -80 mV holding potential under less potent phase in presence of GABA EC1 to 1.5 by two-electrode voltage-clamp assay. The class given is cell-based, Oocyte.

Test [4] has as its target T2, Gamma-aminobutyric acid receptor subunit alpha-6/beta-3/gamma-2 (Rattus norvegicus) (UniProt P18508+P30191+P63079). Briefly: Positive allosteric modulation of rat recombinant GABAA alpha6beta3alpha6-gamma2beta3 receptor expressed in Xenopus laevis oocytes assessed as maximal efficacy at -80 mV holding potential at 1 nM in presence of GABA EC1 to 1.5 by two-electrode voltage-clamp assay. The class given is cell-based. As to conditions: Oocyte.

Test [5] concerns the target T2, Gamma-aminobutyric acid receptor subunit alpha-6/beta-3/gamma-2 (Rattus norvegicus). Kind of test: Positive allosteric modulation of rat recombinant GABAA alpha6beta3gamma2 receptor expressed in Xenopus laevis oocytes assessed as maximal efficacy at -80 mV holding potential at 1 uM in presence of GABA EC1 to 1.5 by two-electrode voltage-clamp assay. The class given is cell-based. As to conditions: Oocyte, filed as positive allosteric modulator.

Test [6] deals with T3, Gamma-aminobutyric acid receptor subunit alpha-1/alpha-6/beta-3/gamma-2 (Rattus norvegicus) (UniProt P18508+P30191+P62813+P63079). Kind of test: Positive allosteric modulation of rat recombinant GABAA gamma2beta3alpha1-beta3alpha6 receptor expressed in Xenopus laevis oocytes assessed as maximal efficacy at -80 mV holding potential at 3 nM in presence of GABA EC1 to 1.5 by two-electrode voltage-clamp assay. The following applies: Oocyte. The class given is cell-based.

The target of test [7] is T1, Gamma-aminobutyric acid receptor subunit alpha-1/beta-3/gamma-2 (Rattus norvegicus). Briefly: Positive allosteric modulation of rat recombinant GABAA alpha1beta3alpha1-gamma2beta3 receptor expressed in Xenopus laevis oocytes assessed as maximal current at -80 mV holding potential under less potent phase in presence of GABA EC1 to 1.5 by two-electrode voltage-clamp assay relative to control. Type of test: cell-based. The following applies: Oocyte, filed as positive allosteric modulator.

Test [8] has as its target T3, Gamma-aminobutyric acid receptor subunit alpha-1/alpha-6/beta-3/gamma-2 (Rattus norvegicus). Briefly: Positive allosteric modulation of rat recombinant GABAA gamma2beta3alpha1-beta3alpha6 receptor expressed in Xenopus laevis oocytes assessed as maximal current at -80 mV holding potential under less potent phase in presence of GABA EC1 to 1.5 by two-electrode voltage-clamp assay relative to control. The class given is cell-based. As to conditions: Oocyte, filed as positive allosteric modulator.

Test [9] deals with T2, Gamma-aminobutyric acid receptor subunit alpha-6/beta-3/gamma-2 (Rattus norvegicus). Briefly: Positive allosteric modulation of rat recombinant GABAA alpha6beta3alpha6-gamma2beta3 receptor expressed in Xenopus laevis oocytes assessed as maximal efficacy at -80 mV holding potential at 10 uM in presence of GABA EC1 to 1.5 by two-electrode voltage-clamp assay. The class given is cell-based. The following applies: Oocyte, filed as positive allosteric modulator.

The target is the same in test [10]. Kind of test: Positive allosteric modulation of rat recombinant GABAA alpha6beta3gamma2 receptor expressed in Xenopus laevis oocytes assessed as maximal efficacy at -80 mV holding potential at 1 nM in presence of GABA EC1 to 1.5 by two-electrode voltage-clamp assay. The class given is cell-based. As to conditions: Oocyte.
The target is the same in test [11]. Briefly: Positive allosteric modulation of rat recombinant GABAA alpha6beta3gamma2 receptor expressed in Xenopus laevis oocytes assessed as maximal efficacy at -80 mV holding potential at 100 nM in presence of GABA EC1 to 1.5 by two-electrode voltage-clamp assay. Type of test: cell-based. The following applies: Oocyte, filed as positive allosteric modulator.

Test [12] concerns the target T3, Gamma-aminobutyric acid receptor subunit alpha-1/alpha-6/beta-3/gamma-2 (Rattus norvegicus). Kind of test: Positive allosteric modulation of rat recombinant GABAA gamma2beta3alpha1-beta3alpha6 receptor expressed in Xenopus laevis oocytes assessed as maximal efficacy at -80 mV holding potential at 1 nM in presence of GABA EC1 to 1.5 by two-electrode voltage-clamp assay. The class given is cell-based. The following applies: Oocyte.

Test [13] concerns the target T1, Gamma-aminobutyric acid receptor subunit alpha-1/beta-3/gamma-2 (Rattus norvegicus). Kind of test: Positive allosteric modulation of rat recombinant GABAA alpha1beta3gamma2 receptor expressed in Xenopus laevis oocytes assessed as maximal efficacy at -80 mV holding potential at 30 nM in presence of GABA EC1 to 1.5 by two-electrode voltage-clamp assay. The class given is cell-based. The following applies: Oocyte.

Test [14] addresses T2, Gamma-aminobutyric acid receptor subunit alpha-6/beta-3/gamma-2 (Rattus norvegicus). Briefly: Positive allosteric modulation of rat recombinant GABAA alpha6beta3gamma2 receptor expressed in Xenopus laevis oocytes assessed as maximal efficacy at -80 mV holding potential at 30 nM in presence of GABA EC1 to 1.5 by two-electrode voltage-clamp assay. Type of test: cell-based. The following applies: Oocyte, filed as positive allosteric modulator.

Test [15] shares this target. Briefly: Positive allosteric modulation of rat recombinant GABAA alpha6beta3gamma2 receptor expressed in Xenopus laevis oocytes assessed as maximal efficacy at -80 mV holding potential at 3 nM in presence of GABA EC1 to 1.5 by two-electrode voltage-clamp assay. The class given is cell-based. As to conditions: Oocyte.
For test [16] the target is unchanged. Kind of test: Positive allosteric modulation of rat recombinant GABAA alpha6beta3alpha6-gamma2beta3 receptor expressed in Xenopus laevis oocytes assessed as maximal efficacy at -80 mV holding potential at 3 uM in presence of GABA EC1 to 1.5 by two-electrode voltage-clamp assay. Type of test: cell-based. As to conditions: Oocyte, filed as positive allosteric modulator.

Test [17] has as its target T3, Gamma-aminobutyric acid receptor subunit alpha-1/alpha-6/beta-3/gamma-2 (Rattus norvegicus). Briefly: Positive allosteric modulation of rat recombinant GABAA alpha6beta3alpha1-gamma2beta3 receptor expressed in Xenopus laevis oocytes assessed as maximal efficacy at -80 mV holding potential at 300 nM in presence of GABA EC1 to 1.5 by two-electrode voltage-clamp assay. As to conditions: Oocyte, filed as positive allosteric modulator. Type of test: cell-based.

For test [18] the target is unchanged. Briefly: Positive allosteric modulation of rat recombinant GABAA alpha6beta3alpha1-gamma2beta3 receptor expressed in Xenopus laevis oocytes assessed as maximal efficacy at -80 mV holding potential at 30 uM in presence of GABA EC1 to 1.5 by two-electrode voltage-clamp assay. Type of test: cell-based. As to conditions: Oocyte, filed as positive allosteric modulator.

Test [19] has the same target. Briefly: Positive allosteric modulation of rat recombinant GABAA alpha6beta3alpha1-gamma2beta3 receptor expressed in Xenopus laevis oocytes assessed as maximal efficacy at -80 mV holding potential at 100 nM in presence of GABA EC1 to 1.5 by two-electrode voltage-clamp assay. The class given is cell-based. The following applies: Oocyte.
For test [20], the target named is T1, Gamma-aminobutyric acid receptor subunit alpha-1/beta-3/gamma-2 (Rattus norvegicus). Briefly: Positive allosteric modulation of rat recombinant GABAA alpha1beta3alpha1-gamma2beta3 receptor expressed in Xenopus laevis oocytes assessed as maximal efficacy at -80 mV holding potential at 100 nM in presence of GABA EC1 to 1.5 by two-electrode voltage-clamp assay. The class given is cell-based. As to conditions: Oocyte.

In test [21] the target is T2, Gamma-aminobutyric acid receptor subunit alpha-6/beta-3/gamma-2 (Rattus norvegicus). Kind of test: Positive allosteric modulation of rat recombinant GABAA alpha6beta3alpha6-gamma2beta3 receptor expressed in Xenopus laevis oocytes assessed as maximal efficacy at -80 mV holding potential at 300 nM in presence of GABA EC1 to 1.5 by two-electrode voltage-clamp assay. As to conditions: Oocyte, filed as positive allosteric modulator. The class given is cell-based.

Test [22] has as its target T3, Gamma-aminobutyric acid receptor subunit alpha-1/alpha-6/beta-3/gamma-2 (Rattus norvegicus). Kind of test: Positive allosteric modulation of rat recombinant GABAA gamma2beta3alpha1-beta3alpha6 receptor expressed in Xenopus laevis oocytes assessed as maximal efficacy at -80 mV holding potential at 30 nM in presence of GABA EC1 to 1.5 by two-electrode voltage-clamp assay. Type of test: cell-based. The following applies: Oocyte.

In test [23] the target is T1, Gamma-aminobutyric acid receptor subunit alpha-1/beta-3/gamma-2 (Rattus norvegicus). Briefly: Positive allosteric modulation of rat recombinant GABAA alpha1beta3gamma2 receptor expressed in Xenopus laevis oocytes assessed as maximal efficacy at -80 mV holding potential at 100 nM in presence of GABA EC1 to 1.5 by two-electrode voltage-clamp assay. Type of test: cell-based. The following applies: Oocyte.

Sequence of Gamma-aminobutyric acid receptor subunit alpha-1/beta-3/gamma-2 (P18508 whole entry): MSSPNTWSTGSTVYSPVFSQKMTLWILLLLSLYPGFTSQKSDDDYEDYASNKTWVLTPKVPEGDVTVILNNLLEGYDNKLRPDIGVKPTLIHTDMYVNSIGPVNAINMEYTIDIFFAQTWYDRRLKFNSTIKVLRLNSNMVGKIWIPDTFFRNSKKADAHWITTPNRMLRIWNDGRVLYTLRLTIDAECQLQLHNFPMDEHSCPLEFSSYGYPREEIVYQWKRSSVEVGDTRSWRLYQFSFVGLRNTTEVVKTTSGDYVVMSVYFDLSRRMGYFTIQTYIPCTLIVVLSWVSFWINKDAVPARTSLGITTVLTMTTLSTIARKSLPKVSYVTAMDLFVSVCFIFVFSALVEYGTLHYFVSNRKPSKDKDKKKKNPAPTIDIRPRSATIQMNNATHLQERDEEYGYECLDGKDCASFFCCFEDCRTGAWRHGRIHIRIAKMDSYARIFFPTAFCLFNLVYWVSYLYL
Sequence of Gamma-aminobutyric acid receptor subunit alpha-1/beta-3/gamma-2 (P62813 whole entry): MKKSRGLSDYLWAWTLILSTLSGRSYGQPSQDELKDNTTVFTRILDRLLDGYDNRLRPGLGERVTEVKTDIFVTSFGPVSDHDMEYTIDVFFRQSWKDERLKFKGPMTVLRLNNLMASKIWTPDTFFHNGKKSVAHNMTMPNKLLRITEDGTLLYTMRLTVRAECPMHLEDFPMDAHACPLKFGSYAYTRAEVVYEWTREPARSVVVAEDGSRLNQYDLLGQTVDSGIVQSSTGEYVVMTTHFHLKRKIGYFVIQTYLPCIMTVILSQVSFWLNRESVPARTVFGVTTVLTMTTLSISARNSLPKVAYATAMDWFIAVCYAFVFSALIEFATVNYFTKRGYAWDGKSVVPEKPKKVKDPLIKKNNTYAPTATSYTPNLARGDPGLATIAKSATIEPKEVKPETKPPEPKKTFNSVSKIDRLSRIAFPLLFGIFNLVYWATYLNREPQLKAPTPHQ
Sequence of Gamma-aminobutyric acid receptor subunit alpha-1/beta-3/gamma-2 (P63079 whole entry): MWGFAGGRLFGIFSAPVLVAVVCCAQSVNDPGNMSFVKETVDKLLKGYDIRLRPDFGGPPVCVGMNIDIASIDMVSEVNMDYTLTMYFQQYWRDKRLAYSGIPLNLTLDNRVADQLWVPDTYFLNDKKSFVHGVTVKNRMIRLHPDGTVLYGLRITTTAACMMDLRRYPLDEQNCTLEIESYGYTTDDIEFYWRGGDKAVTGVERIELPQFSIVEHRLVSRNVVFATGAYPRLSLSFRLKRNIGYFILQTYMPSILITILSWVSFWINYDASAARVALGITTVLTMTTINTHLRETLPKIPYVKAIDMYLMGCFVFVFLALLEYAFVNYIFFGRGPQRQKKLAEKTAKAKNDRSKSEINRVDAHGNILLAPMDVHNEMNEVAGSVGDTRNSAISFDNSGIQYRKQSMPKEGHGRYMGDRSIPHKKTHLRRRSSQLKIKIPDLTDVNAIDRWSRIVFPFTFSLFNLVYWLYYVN
Sequence of Gamma-aminobutyric acid receptor subunit alpha-6/beta-3/gamma-2 (P18508 whole entry): as the sequence (P18508 whole entry) above
Sequence of Gamma-aminobutyric acid receptor subunit alpha-6/beta-3/gamma-2 (P30191 whole entry): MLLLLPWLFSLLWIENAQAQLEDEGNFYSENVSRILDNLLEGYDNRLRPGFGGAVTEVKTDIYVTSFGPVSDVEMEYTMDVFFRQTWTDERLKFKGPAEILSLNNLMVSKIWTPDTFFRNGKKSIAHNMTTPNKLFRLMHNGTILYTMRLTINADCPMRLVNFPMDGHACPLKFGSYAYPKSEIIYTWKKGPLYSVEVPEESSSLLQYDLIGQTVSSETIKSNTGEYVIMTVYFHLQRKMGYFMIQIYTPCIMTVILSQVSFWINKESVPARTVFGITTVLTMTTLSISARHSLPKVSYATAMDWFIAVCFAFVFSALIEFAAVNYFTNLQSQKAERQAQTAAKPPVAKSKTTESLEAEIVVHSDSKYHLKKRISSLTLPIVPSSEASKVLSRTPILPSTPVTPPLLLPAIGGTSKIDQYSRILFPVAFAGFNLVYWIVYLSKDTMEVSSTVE
Sequence of Gamma-aminobutyric acid receptor subunit alpha-6/beta-3/gamma-2 (P63079 whole entry): as the sequence (P63079 whole entry) above

With `COc1ccc(-n2nc3c4ccc(Br)cc4[nH]cc-3c2=O)cc1`, the Efficacy worked out at 95% in test [1]; 5% in test [4]; 185% in test [5]; 16% in test [6]; 621% in test [9]; 9% in test [10]. Moreover, the Efficacy in test [11] stood at 46%; in test [12], 3%; in test [13], 2%; in test [14], 49%; in [15] it was 23%; in test [16], 320%. Besides, the Efficacy was 60% in test [17]; 838% in test [18]; 18% in test [19]; 8% in [20]; 124% in [21]; 31% in test [22]. The Efficacy in [23] is 5%. Moreover, the EC50 is 0.001 µM in test [2] and 6 µM in test [3]. Besides, the %max in test [7] turned out to be 342%; in [8], 230%.
